Results: US5712300A, “Hydroxamic acid derivatives useful for the treatment of diseases related to connective tissue degradation” (priority 1997, dated 1998)
pKi: −log10 of the molar value.

Columns and labels:
Assay type in all cases: biochemical
Stromelysin = Stromelysin (Homo sapiens, UniProt P08254); assay: MMP inhibition by particle concentration fluorescence technique (stromelysin); settings: pH 7.5; 15 min enzyme preincubation; substrate 1-3 h at room temperature; read-out: MMP Inhibition Constants, Stromelysin Ki
Stromelysin, sequence (P08254 100-477): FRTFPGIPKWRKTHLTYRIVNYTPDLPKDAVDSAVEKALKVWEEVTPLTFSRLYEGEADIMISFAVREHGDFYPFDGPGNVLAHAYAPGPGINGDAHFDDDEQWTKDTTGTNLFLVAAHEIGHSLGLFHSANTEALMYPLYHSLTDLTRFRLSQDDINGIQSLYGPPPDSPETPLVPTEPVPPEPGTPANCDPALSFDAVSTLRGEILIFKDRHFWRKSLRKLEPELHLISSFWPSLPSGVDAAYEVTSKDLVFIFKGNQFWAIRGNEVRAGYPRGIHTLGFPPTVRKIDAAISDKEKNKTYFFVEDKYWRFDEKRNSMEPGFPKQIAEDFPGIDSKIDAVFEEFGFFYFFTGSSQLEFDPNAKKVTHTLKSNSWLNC
Source text: An inhibitor binds to MMP enzymes prevents the degradation of a substrate of stromelysin, gelatinase, or collagenase. The substrate is attached with a fluorescein and a biotin. The intact substrate then binds to an avidin-coated particle via the biotin moiety. Once the particle is washed and dried, a fluorescent signal is generated since the fluorescent group is attached to the particle. Without an inhibitor present, the substrate is degraded by MMP enzymes and the fluorescein group is removed, therefore, no fluorescent signal can be detected. […] Serial two-fold dilutions of each compound are prepared. A concentrated, activated enzyme solution is transferred into each plate of the testing compounds, and the mixture is incubated at room temperature for 15 minutes.

Collagenase = target: T1, Collagenase (Homo sapiens, UniProt P03956); assay: MMP inhibition by particle concentration fluorescence technique (collagenase); settings: pH 7.5; 15 min enzyme preincubation; substrate 1-3 h at room temperature; read-out: MMP Inhibition Constants, Collagenase Ki
T1 sequence (P03956 100-469): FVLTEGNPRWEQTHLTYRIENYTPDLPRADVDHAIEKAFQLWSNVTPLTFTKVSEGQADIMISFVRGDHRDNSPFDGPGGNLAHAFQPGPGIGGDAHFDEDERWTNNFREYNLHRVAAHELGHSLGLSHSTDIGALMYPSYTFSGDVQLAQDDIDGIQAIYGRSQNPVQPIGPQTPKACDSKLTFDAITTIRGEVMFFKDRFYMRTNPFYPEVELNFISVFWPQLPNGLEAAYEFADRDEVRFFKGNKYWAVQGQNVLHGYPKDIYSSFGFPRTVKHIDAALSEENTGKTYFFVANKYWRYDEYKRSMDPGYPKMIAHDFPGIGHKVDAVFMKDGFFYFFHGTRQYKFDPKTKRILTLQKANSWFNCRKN
Experimental: (§1) Inhibitory activity is evaluated in one or more of the MMP enzymes (stromelysin, gelatinase, and collagenase) in vitro using a particle concentration fluorescence techniques. An inhibitor binds to MMP enzymes prevents the degradation of a substrate of stromelysin, gelatinase, or collagenase. The substrate is attached with a fluorescein and a biotin. The intact substrate then binds to an avidin-coated particle via the biotin moiety. Once the particle is washed and dried, a fluorescent signal is generated since the fluorescent group is attached to the particle. Without an inhibitor present, the substrate is degraded by MMP enzymes and the fluorescein group is removed, therefore, no fluorescent signal can be detected. Testing compounds are dissolved in DMSO to the desired concentration, then the solutions are diluted to 1:5 with MMP buffer (50 mM Tris-HCl, pH 7.5; 150 mM NaCl; 0.02% NAN3). Serial two-fold dilutions of each compound are prepared. A concentrated, activated enzyme solution is transferred into each plate of the testing compounds, and the mixture is incubated at room temperature for 15 minutes. Thawed MMP substrate is then added into all plates, and the plates are incubate in the dark for 1-3 hours at room temperature. At this point, the substrate mixture is reacted with 0.1% avidin-coated polystyrene particles.

Gelatinase = assay: MMP inhibition by particle concentration fluorescence technique (gelatinase); settings: pH 7.5; 15 min enzyme preincubation; substrate 1-3 h at room temperature; read-out: MMP Inhibition Constants, Gelatinase Ki
Experimental: as §1

pKi (Stromelysin)	pKi (Collagenase)	pKi (Gelatinase)	Structure (SMILES)
6.99	6.19	7.34	CC(C)C[C@@]1([C@@H](CCN2Cc3ccccc3C2=O)C(=O)NO)CCN(CCc2ccccc2)C1=O (relative stereo) [Example 86, 1,3-Dihydro-N-hydroxy-α-[8-(2-methylpropyl)-2-oxo-1-(2-phenylethyl)-3-pyrrolidinyl]-1-oxo-2H-isoindole-2-butanamide]
4.78	6.24	5.51	CNC(=O)CN1CCC(CC(=O)NO)(CC(C)C)C1=O (stereo not drawn) [Example 20, N^3 -Hydroxy-N^1-methyl-3-(2-methylpropyl)-2-oxo-1,3-pyrrolidinediacetamide]
6.19	5.72	5.89	CC(C)C[C@@]1([C@@H](CCN2C(=O)c3ccccc3C2=O)C(=O)NO)CCN(Cc2cccc(F)c2)C1=O (relative stereo) [Example 25]
5.68	7.46	7.40	CC(C)C[C@@]1(CC(=O)NO)CCN([C@@H](Cc2ccccc2)C(=O)NCc2ccc(F)cc2)C1=O [Example 46, [S-(R*,R*)]-N^1-(4-Fluorophenylmethyl)-N^3-hydroxy-3-(2-methylpropyl)-2-oxo-α^1-(phenylmethyl)-1,3-pyrrolidinediacetamide]
7.12	7.92	8.02	CC(C)C[C@@]1(CC(=O)NO)CCN([C@@H](Cc2ccccc2)C(=O)Nc2ccccn2)C1=O [Example 57, [S-(R*,R*)]-N^3 -Hydroxy-3-(2-methylpropyl)-2-oxo-α^1-(phenylmethyl)-N^1-2-pyridinyl-1,3-pyrrolidinediacetamide]
4.97	6.53	5.48	CC(C)C[C@@]1([C@@H](CCNC(=O)c2cccc([N+](=O)[O-])c2)C(=O)NO)CCN(CCc2ccccc2)C1=O (relative stereo) [Example 76, N-Hydroxy-3-(2-methylpropyl)-α-[2-[(3-nitrobenzoyl)amino]ethyl]-2-oxo-1-(2-phenylethyl)-3-pyrrolidineacetamide]
6.73	8.89	8.96	CNC(=O)[C@H](Cc1ccccc1)N1CC[C@](CC(=O)NO)(CC2CCCC2)C1=O [Example 52, [S-(R*,R*)]-3-(Cyclopentylmethyl)-N^3-hydroxy-N^1-methyl-2-oxo-α^1-(phenylmethyl)-1,3-pyrrolidinediacetamide]
4.96	5.37	4.93	CC(C)CC1(C(C)C(=O)NO)CCN(CCc2ccccc2)C1=O (stereo not drawn) [Example 3, N-Hydroxy-α-methyl-3-(2-methylpropyl)-2-oxo-1-(2-phenylethyl)-3-pyrrolidineacetamide]
6.67	5.30	7.44	CC(C)C[C@@]1([C@@H](CCN2C(=O)c3ccccc3C2=O)C(=O)NO)CCN(CCCc2ccccc2)C1=O (relative stereo) [Example 67, α-[2-(1,3-Dihydro-1,3-dioxo-2H-isoindol-2-yl)ethyl]-N-hydroxy-3-(2-methylpropyl)-2-oxo-1-(3-phenylpropyl)-3-pyrrolidineacetamide]
6.42	5.62	6.06	COc1ccc(S(=O)(=O)NCC[C@@H](C(=O)NO)[C@]2(CC(C)C)CCN(CCc3ccccc3)C2=O)cc1 (relative stereo) [Example 82, N-Hydroxy-α-[2-[[(4-methoxyphenyl)sulfonyl]amino]ethyl]-3-(2-methylpropyl)-2-oxo-1-(2-phenylethyl)-3-pyrrolidineacetamide]
5.71	5.68	5.89	CC(C)C[C@@]1([C@@H](CCN2C(=O)c3ccccc3C2=O)C(=O)NO)CCN(Cc2ccccc2)C1=O (relative stereo) [Example 22, α-[2-(1,3-Dihydro-1,3-dioxo-2H-isoindol-2-yl)ethyl]-N-hydroxy-3-(2-methylpropyl)-2-oxo-1-(phenylmethyl)-3-pyrrolidineacetamide]
5.68	7.66	7.31	CNC(=O)C(Cc1ccccc1)N1CCC(CC(=O)NO)(CC(C)C)C1=O (stereo not drawn) [Example 21, N^3 -Hydroxy-N^1-methyl-3-(2-methylpropyl)-2-oxo-α^1-(phenylmethyl)-1,3-pyrrolidinediacetamide]
6.00	7.63	7.77	CC(C)C[C@@]1(CC(=O)NO)CCN([C@@H](Cc2ccccc2)C(=O)NCc2ccncc2)C1=O [Example 45, [S-(R*,R*)]-N^3 -Hydroxy-3-(2-methylpropyl)-2-oxo-α^1-(phenylmethyl)-N^1-(4-pyridinylmethyl)-1,3-pyrrolidinediacetamide]
6.92	7.60	7.89	O=C(NCC[C@@H](C(=O)NO)[C@]1(CCO)CCN(CCc2ccccc2)C1=O)c1ccc(F)c(F)c1 (relative stereo) [Example 95, α-[2-[(3,4-Difluorobenzoyl)amino]ethyl]-N-hydroxy-3-(2-hydroxyethyl)-2-oxo-1-(2-phenylethyl)-3-pyrrolidineacetamide]
6.24	6.32	6.01	CNC(=O)[C@H](Cc1ccccc1)N1CC[C@@](CC(C)C)([C@@H](CCN2C(=O)c3ccccc3C2=O)C(=O)NO)C1=O (relative stereo) [Example 29, [R,R-(R*,R*)]-α^3-[2-(1,3-Dihydro-1,3-dioxo-2H-isoindol-2-yl)ethyl]-N^3-hydroxy-N^1-methyl-3-(2-methylpropyl)-2-oxo-α^1-(phenylmethyl)-1,3-pyrrolidinediacetamide]
7.98	9.16	8.97	CNC(=O)[C@H](Cc1ccccc1)N1CC[C@@](CC(C)C)([C@H](CCNC(=O)c2ccccc2)C(=O)NO)C1=O [Example 53, [3S-[1(R*),3R*(R*)]]-α^3-[2-(Benzoylamino)ethyl]-N^3-hydroxy-N^1-methyl-3-(2-methylpropyl)-2-oxo-α^1-(phenylmethyl)-1,3-pyrrolidinediacetamide]
7.34	6.27	7.01	CC(C)C[C@@]1([C@@H](CCN2C(=O)c3ccc(F)cc3C2=O)C(=O)NO)CCN(CCc2ccccc2)C1=O (relative stereo) [Example 14, α-[2-(5-Fluoro-1,3-dihydro-1,3-dioxo-2H-isoindol-2-yl)ethyl]-N-hydroxy-3-(2-methylpropyl)-2-oxo-1-(2-phenylethyl)-3-pyrrolidineacetamide]
6.64	8.48	7.96	CC(C)C[C@@]1(CC(=O)NO)CCN([C@H](C(=O)NCC2CC2)C2CCCCC2)C1=O (relative stereo) [Example 59, [S-(R*,R*)]-α^1 -Cyclohexyl-N^1-cyclopropylmethyl-N^3-hydroxy-3-(2-methylpropyl)-2-oxo-1,3-pyrrolidinediacetamide]
6.51	6.43	6.56	CC(C)C[C@@]1([C@@H](NS(=O)(=O)c2ccc(F)cc2)C(=O)NO)CCN(CCc2ccccc2)C1=O (relative stereo) [Example 92, α-[[(4-Fluorophenyl)sulfonyl]amino]-N-hydroxy-3-(2-methylpropyl)-2-oxo-1-(2-phenylethyl)-3-pyrrolidineacetamide]
5.99	7.14	6.30	CC(C)C[C@@]1([C@@H](CCN2C(=O)c3ccc([N+](=O)[O-])cc3C2=O)C(=O)NO)CCN(CCc2ccccc2)C1=O (relative stereo) [Example 11, N-Hydroxy-3-(2-methylpropyl)-α-[2-(5-nitro-1,3-dihydro-1,3-dioxo-2H-isoindol-2-yl)ethyl]-2-oxo-1-(2-phenylethyl)-3-pyrrolidineacetamide]
5.38	6.34	5.81	CC(C)CC1(CC(=O)NO)CCN(Cc2ccccc2)C1=O (stereo not drawn) [Example 23, N-Hydroxy-3-(2-methylpropyl)-2-oxo-1-(phenylmethyl)-3-pyrrolidineacetamide]
